Read-outs that look alike come from different tables or passages of the source.
Experiments:
[1] = tested on: VX-950 metabolism in human hepatic microsomes; assay type: in vitro ADME; details: 0.25 μM VX-950, 0.25 mg microsomal protein/mL, 2 minutes

metabolized in human liver microsomes (1 h, 2 μM) | metabolized in human liver microsomes (1 h, 20 μM) | metabolized in human liver microsomes (2 h, 2 μM) | metabolized in human liver microsomes (2 h, 20 μM) | Compound | effect of ritonavir on VX-950 metabolism ([1]; ritonavir 10 to 100 μM) | effect of ritonavir on VX-950 metabolism ([1]; ritonavir up to 3 μM)
73% | 7% | 86% | 21% | CCC[C@H](NC(=O)[C@@H]1[C@H]2CCC[C@H]2CN1C(=O)[C@@H](NC(=O)[C@@H](NC(=O)c1cnccn1)C1CCCCC1)C(C)(C)C)C(=O)C(=O)NC1CC1 [VX-950] |  | 
 |  |  |  | CC(C)c1nc(CN(C)C(=O)N[C@H](C(=O)N[C@@H](Cc2ccccc2)C[C@H](O)[C@H](Cc2ccccc2)NC(=O)OCc2cncs2)C(C)C)cs1 [ritonavir] | increase in VX-950 metabolism | inhibition of VX-950 metabolism

From US20060003942A1, “Combinations for HCV treatment” (priority 2003, published 2006)
